Reference: PMC7615185, “Structural basis for ion selectivity in potassium-selective channelrhodopsins” (Cell, 2023)

Molecular target: T1, HcKCR1 (Hyphochytrium catenoides, UniProt A0ABF7PQA2, A110C)
T1 construct: M1-S265; 7TM rhodopsin domain; Sf9, HA signal/FLAG and eGFP-His10-Rho1D4 tags cleaved by 3C, MSP1E3D1/SoyPC nanodisc; residues 6-260 modelled; homotrimer; eYFP fusion in HEK293 for patch clamp
T1 sequence (A0ABF7PQA2 1-265 A110C): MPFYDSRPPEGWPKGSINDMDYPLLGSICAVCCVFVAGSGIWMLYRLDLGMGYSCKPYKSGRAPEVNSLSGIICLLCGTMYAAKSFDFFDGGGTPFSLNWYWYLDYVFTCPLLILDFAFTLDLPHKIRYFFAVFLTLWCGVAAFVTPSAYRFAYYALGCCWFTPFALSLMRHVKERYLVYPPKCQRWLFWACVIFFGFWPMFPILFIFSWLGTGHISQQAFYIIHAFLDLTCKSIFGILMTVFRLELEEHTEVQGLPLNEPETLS
Assay: cryo-EM structure, retinal isomer by HPLC
Assay type: binding
Conditions: dark state, nanodisc, pH 7.5; covalent Schiff base to K233

CC1=C(/C=C/C(C)=C/C=C/C(C)=C/C=O)C(C)(C)CCC1 [all-trans-retinal]
cryo-EM structure, retinal isomer by HPLC: accurate modeling of most residues of both HcKCRs
